ChEMBL document CHEMBL1201862, “PubChem BioAssay data set” (2004)
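Following 48 hours of exposure in 96-well plates, responses at five concentrations were used to interpolate endpoints linearly. Here, GI50 denotes the concentration required for 50% inhibition of growth.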 Calls of active or inactive are those of the source. Cut-off read from the data, not from the text of the source: active = GI50 up to about 1.1 µM and inactive = higher.

Legend:
Test in all cases: NCI tumour cell line growth inhibition, 48 h
NCI-H522 = test system: NCI-H522
HOP-92 = test system: HOP-92
NCI-H23 = test system: NCI-H23
SF-539 = test system: SF-539
CAKI-1 = test system: CAKI-1
OVCAR-8 = test system: OVCAR-8
NCI-H460 = test system: NCI-H460
K562 = test system: K562
U-251 = test system: U-251
UO-31 = test system: UO-31
HL-60 = test system: HL-60
HCT-15 = test system: HCT-15
HOP-62 = test system: HOP-62
SF-295 = test system: SF-295
SN12C = test system: SN12C
NCI-H226 = test system: NCI-H226
Malme-3M = test system: Malme-3M
HCT-116 = test system: HCT-116

Measured: GI50

O=C(Nc1ccc(C(F)(F)F)cc1[N+](=O)[O-])C(=O)C(C(=O)c1ccc2ccccc2c1)C1OC(=O)c2ccccc21 (centres undefined)
inactive: NCI-H522 7.11 µM | NCI-H23 5.31 µM | SF-539 1.63 µM | CAKI-1 8.26 µM | OVCAR-8 5.07 µM | NCI-H460 3.81 µM | K562 5.57 µM | U-251 4.41 µM | UO-31 13.8 µM | HL-60 8.28 µM | HOP-62 5.74 µM | SF-295 4.85 µM | SN12C 12.9 µM | Malme-3M 11.6 µM | HCT-116 4.36 µM
active: HOP-92 0.34 µM | NCI-H226 0.681 µM
8.81 µM: HCT-15

CCCCNC(=O)NNC(=O)c1cc(/C=C/c2cccc([N+](=O)[O-])c2)ncn1
87.3 µM: HCT-15
inactive: NCI-H522 > 100 µM | HOP-92 > 100 µM | NCI-H23 > 100 µM | CAKI-1 > 100 µM | OVCAR-8 > 100 µM | NCI-H460 > 100 µM | K562 > 100 µM | U-251 21.1 µM | UO-31 > 100 µM | HL-60 > 100 µM | HOP-62 > 100 µM | SF-295 > 100 µM | SN12C > 100 µM | NCI-H226 > 100 µM | Malme-3M > 100 µM | HCT-116 20 µM

CCOC(=O)C(=O)Nc1cccc(Cl)c1C
> 100 µM: HCT-15
inactive: NCI-H522 > 100 µM | HOP-92 > 100 µM | NCI-H23 > 100 µM | SF-539 > 100 µM | CAKI-1 > 100 µM | OVCAR-8 > 100 µM | NCI-H460 > 100 µM | K562 > 100 µM | U-251 > 100 µM | UO-31 > 100 µM | HL-60 > 100 µM | HOP-62 > 100 µM | SF-295 > 100 µM | SN12C > 100 µM | NCI-H226 > 100 µM | Malme-3M > 100 µM | HCT-116 > 100 µM

COc1cc(-c2ccc(NC(=O)SCCC(=O)O)cc2OC)ccc1NC(=O)SCCC(=O)O
> 100 µM: HCT-15
inactive: NCI-H522 > 100 µM | NCI-H23 > 100 µM | SF-539 > 100 µM | CAKI-1 > 100 µM | OVCAR-8 > 100 µM | NCI-H460 > 100 µM | K562 > 100 µM | U-251 > 100 µM | UO-31 > 100 µM | HL-60 24.9 µM | HOP-62 > 100 µM | SF-295 > 100 µM | SN12C > 100 µM | NCI-H226 > 100 µM | Malme-3M > 100 µM | HCT-116 > 100 µM

COc1ccc(S(=O)(=O)N(CC(=O)O)c2ccccc2)cc1
inactive: NCI-H522 > 100 µM | HOP-92 > 100 µM | NCI-H23 > 100 µM | SF-539 > 100 µM | CAKI-1 > 100 µM | OVCAR-8 > 100 µM | NCI-H460 > 100 µM | K562 > 100 µM | U-251 > 100 µM | UO-31 > 100 µM | HL-60 > 100 µM | SF-295 > 100 µM | SN12C > 100 µM | Malme-3M > 100 µM
> 100 µM: HCT-15

CCN(CC)CCNC(=O)c1ccccc1NC(=O)C(=O)Nc1ccccc1C(=O)NCCN(CC)CC
49.9 µM: HCT-15
inactive: NCI-H522 39.2 µM | HOP-92 31.4 µM | NCI-H23 > 100 µM | SF-539 24.1 µM | CAKI-1 > 100 µM | OVCAR-8 > 100 µM | NCI-H460 75 µM | K562 16.4 µM | U-251 44.6 µM | UO-31 > 100 µM | HL-60 15.2 µM | HOP-62 > 100 µM | SF-295 42.5 µM | SN12C 60.5 µM | NCI-H226 > 100 µM | Malme-3M 21 µM | HCT-116 17.5 µM

COc1ccc(/C(=N\NC(=O)C(=O)NN)C(c2ccc(OC)cc2)C2(O)C(=O)Nc3ccccc32)cc1 (centres undefined)
inactive: NCI-H522 28.1 µM | HOP-92 97.1 µM | NCI-H23 89.5 µM | SF-539 80.7 µM | CAKI-1 > 100 µM | OVCAR-8 > 100 µM | NCI-H460 60.3 µM | K562 26.7 µM | U-251 > 100 µM | UO-31 27.6 µM | HOP-62 94.8 µM | SN12C 57.8 µM | NCI-H226 > 100 µM | Malme-3M 42.7 µM | HCT-116 > 100 µM
94.8 µM: HCT-15

CC(C)(C)C1CCC(=O)C(C(O)CC2CC(=O)N(c3ccccc3)C(=O)C2)C1 (centres undefined)
> 100 µM: HCT-15
inactive: NCI-H522 50.4 µM | HOP-92 > 100 µM | NCI-H23 > 100 µM | SF-539 > 100 µM | CAKI-1 > 100 µM | OVCAR-8 > 100 µM | NCI-H460 > 100 µM | K562 > 100 µM | U-251 80.2 µM | UO-31 > 100 µM | HL-60 > 100 µM | HOP-62 > 100 µM | SF-295 > 100 µM | SN12C > 100 µM | NCI-H226 > 100 µM | Malme-3M > 100 µM | HCT-116 > 100 µM

CCOC(=O)C(C(=O)c1ccccc1)=C1NCCN1
inactive: NCI-H522 > 100 µM | NCI-H23 > 100 µM | SF-539 > 100 µM | CAKI-1 > 100 µM | OVCAR-8 > 100 µM | NCI-H460 > 100 µM | K562 > 100 µM | U-251 > 100 µM | UO-31 > 100 µM | HL-60 > 100 µM | HOP-62 > 100 µM | SF-295 > 100 µM | SN12C > 100 µM | NCI-H226 > 100 µM | Malme-3M > 100 µM | HCT-116 > 100 µM
> 100 µM: HCT-15

CCN(CC)CCn1c2c3ccccc3ccc2c2oc(=O)c3ccccc3c21
> 100 µM: HCT-15
inactive: NCI-H522 > 100 µM | HOP-92 83.6 µM | NCI-H23 > 100 µM | SF-539 22.6 µM | CAKI-1 > 100 µM | OVCAR-8 > 100 µM | NCI-H460 13.7 µM | K562 > 100 µM | U-251 57 µM | UO-31 > 100 µM | HL-60 > 100 µM | HOP-62 18.3 µM | SF-295 56.2 µM | Malme-3M > 100 µM | HCT-116 88.5 µM

CCCCN(CC)C(=O)C(=O)C1C(=O)Nc2ccccc2[S+]1[O-] (centres undefined)
inactive: NCI-H522 > 100 µM | HOP-92 > 100 µM | NCI-H23 > 100 µM | SF-539 > 100 µM | CAKI-1 > 100 µM | OVCAR-8 > 100 µM | NCI-H460 > 100 µM | K562 > 100 µM | U-251 > 100 µM | UO-31 > 100 µM | HOP-62 > 100 µM | SN12C > 100 µM | NCI-H226 > 100 µM | Malme-3M > 100 µM | HCT-116 > 100 µM
> 100 µM: HCT-15

Cc1cc(O)nc(CNC(=O)Cc2ccccc2)n1
> 100 µM: HCT-15
inactive: NCI-H522 > 100 µM | HOP-92 > 100 µM | NCI-H23 > 100 µM | SF-539 > 100 µM | CAKI-1 > 100 µM | OVCAR-8 > 100 µM | NCI-H460 > 100 µM | K562 > 100 µM | UO-31 > 100 µM | HL-60 > 100 µM | HOP-62 > 100 µM | SF-295 > 100 µM | SN12C > 100 µM | NCI-H226 > 100 µM | Malme-3M > 100 µM

Cc1ccccc1C(=O)Oc1ccc(O)cc1
> 100 µM: HCT-15
inactive: NCI-H522 > 100 µM | NCI-H23 > 100 µM | SF-539 > 100 µM | CAKI-1 > 100 µM | OVCAR-8 > 100 µM | NCI-H460 > 100 µM | K562 > 100 µM | U-251 > 100 µM | UO-31 > 100 µM | HL-60 > 100 µM | HOP-62 > 100 µM | SF-295 > 100 µM | SN12C > 100 µM | NCI-H226 > 100 µM | Malme-3M > 100 µM | HCT-116 > 100 µM

O=C1C2C3CC4C5C3C1C5C1(SCCS1)C42 (centres undefined)
inactive: NCI-H522 > 100 µM | SF-539 > 100 µM | CAKI-1 > 100 µM | OVCAR-8 > 100 µM | NCI-H460 > 100 µM | K562 > 100 µM | U-251 > 100 µM | UO-31 > 100 µM | HL-60 > 100 µM | HOP-62 > 100 µM | SN12C > 100 µM | NCI-H226 > 100 µM | Malme-3M > 100 µM | HCT-116 > 100 µM
> 100 µM: HCT-15

COc1ccc(C2Cc3cc(OC)c(OC)c(OC)c3C2=O)cc1 (centres undefined)
inactive: NCI-H23 87.9 µM | SF-539 > 100 µM | CAKI-1 > 100 µM | OVCAR-8 > 100 µM | NCI-H460 > 100 µM | K562 80 µM | U-251 > 100 µM | UO-31 41.8 µM | HOP-62 > 100 µM | SF-295 > 100 µM | SN12C > 100 µM | NCI-H226 > 100 µM | Malme-3M > 100 µM | HCT-116 > 100 µM
> 100 µM: HCT-15

N#CCCN(c1ccc(C=O)cc1)S(=O)(=O)c1ccccc1
inactive: NCI-H522 > 100 µM | SF-539 > 100 µM | CAKI-1 > 100 µM | OVCAR-8 > 100 µM | NCI-H460 > 100 µM | K562 > 100 µM | U-251 > 100 µM | UO-31 > 100 µM | HL-60 > 100 µM | HOP-62 > 100 µM | SF-295 > 100 µM | SN12C > 100 µM | NCI-H226 > 100 µM | Malme-3M > 100 µM | HCT-116 > 100 µM
> 100 µM: HCT-15

O=C(N/N=C/c1cccc(O)c1O)N/N=C/c1cccc(O)c1O
8.45 µM: HCT-15
inactive: HOP-92 17.4 µM | NCI-H23 25.2 µM | SF-539 4.92 µM | OVCAR-8 16.6 µM | NCI-H460 30.1 µM | K562 6.97 µM | U-251 12.3 µM | UO-31 6.52 µM | SF-295 17.9 µM | SN12C 21.8 µM | NCI-H226 23.4 µM | Malme-3M 22.4 µM | HCT-116 5.02 µM
